The source of these data is patent US20200031811A1, “SUBSTITUTED MONO- AND POLYAZANAPHTHALENE DERIVATIVES AND THEIR USE” (Basilea Pharmaceutica International AG, priority 2015, published 2020).

Structures can show the parent of a compound that is named as a salt.

One assay deals with T1, MNK1 (Homo sapiens, UniProt Q9BUB5).
T1 construct: purchased Life Technologies or Carna Biosciences PV6023 or 02-145; host or cells: baculovirus infected insect cells
In words: MNK inhibition assay (Z-Lyte kinase assay, Ser/Thr 7 peptide). The class given is biochemical. The settings on record: for inhibition at 10 µM / inhibition at 1 µM: read-out: Inhibition of MNK1 activity at indicated concentration; for IC50: recombinant GST-MNK1, 3 hours at 31° C. The source says: For the measurement of the activity of the MNK1 kinase the Z-Lyte kinase assay system was used. The kinase activity of MNK1 can be quantified with the Z-Lyte kinase assay kit Ser/Thr 7 peptide (Life Technologies PV3180). The kit was utilized according to the instructions of the provider. A recombinant GST-MNK1 fusion protein produced in and purified from baculovirus infected insect cells was used as enzyme source (GST-MNK1 Life Technologies PV6023 or Carna Biosciences 02-145). It was verified that both sources of the MNK1 enzyme gave similar IC50 values with several compounds. The MNK1 enzyme assay was performed in 384 well round bottom black microtiter plates (Corning 3676). The kinase reaction was performed for 3 hours at 31° C. As instructed by the provider of the kit the amount of enzyme was chosen such that ˜30% of the substrate peptide was phosphorylated in control wells containing buffer only. The MNK1 inhibiting activity of compounds was tested by adding the compounds to the kinase reaction at a concentration of 10000, 5000, 2000, 1000, 500, 200, 100, 50 nM. Compounds with strong MNK1 inhibition were tested at 20, 10, 5, 2, 1 and 0.5 nM in addition. Each compound concentration was tested at least in duplicate. The % phosphorylation of the substrate peptide at each compound concentration was calculated as described in the assay manual. The fluorescent signals were recordes on Biotek Cytation 3 microplate reader. The IC50, the concentration that reduced substrate phosphorylation by 50% if compared to buffer only wells, was calculated with the Grafit 6 software (Erythacus software).

Assay [1] deals with human pancreatic cancer cell line MiaPaCa2 (ATCC CRL-1420). In words: Cell growth assay (CellTiterGlo, 72 hours). The format is cell-based. Particulars: for IC50: MIA PaCa-2, MiaPaCa2 cells, 72 hours, read-out: IC50 MiaPaCa. How it is done: The inhibition of cell growth by the compounds was tested by exposing the human pancreatic cancer cell line MiaPaCa2 (ATCC CRL-1420) to the compounds. The assay was performed in 384 well clear bottom white microtiter plates (Greiner #781098). Each well was seeded with 10^3 cells in 20 μl of Dulbecco's modified Eagle's medium (Sigma D6796) supplied with 10% fetal calf scrum (Sigma F7524), 2.5% horse serum (Sigma H0146), 1% Penicillin-Streptomycin (Sigma P0781), 1% MEM nonessential amino acid solution 100× (Sigma M71459) and 1% 200 mM L-Glutamine (Sigma G7513) culture medium. After overnight incubation at 37° C. in 5% CO2 the compounds were added in the following concentrations: 100, 50, 20, 10, 5, 2, 1, 0.5, 0.2 and 0.1 μM. Each compound concentration was tested in quadruplicate. The incubation was then continued for 72 hours. After 72 hours the growth of the cells was assessed by the addition of the CellTiterGlo reagent (Promega G9242) as instructed by the provider. The luminescent signal was recorded on a SpectraMax M2 microplate reader. The signal obtained in wells containing cells cultivated in the absence of compound was set to 100% growth after subtracting the signal obtained in medium only wells. The % growth in each well was calculated by subtracting the medium only value and dividing through the 100% growth value. The IC50 for cell growth, the concentration of compound at which cell growth was reduced to 50%, was calculated with the GraFit6 software (Erythacus software).
A general note: ATP-based viability assays read luminescence as a measure of living cells.

T1 sequence (Q9BUB5 whole entry): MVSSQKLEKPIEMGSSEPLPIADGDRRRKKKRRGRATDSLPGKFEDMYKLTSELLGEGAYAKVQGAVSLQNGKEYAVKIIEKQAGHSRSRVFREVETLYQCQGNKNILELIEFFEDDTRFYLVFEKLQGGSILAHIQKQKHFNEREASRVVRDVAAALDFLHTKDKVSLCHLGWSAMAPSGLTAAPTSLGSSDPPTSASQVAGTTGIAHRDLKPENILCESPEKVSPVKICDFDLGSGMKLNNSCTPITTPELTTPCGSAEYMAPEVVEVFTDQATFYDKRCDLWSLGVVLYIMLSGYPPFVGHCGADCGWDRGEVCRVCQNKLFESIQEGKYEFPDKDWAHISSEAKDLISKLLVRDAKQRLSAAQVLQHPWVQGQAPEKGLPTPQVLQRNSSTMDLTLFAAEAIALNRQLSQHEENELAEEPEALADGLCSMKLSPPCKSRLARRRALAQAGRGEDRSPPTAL

As for `NCCNc1ccc2cncc(-c3cc4ccccc4o3)c2c1` [Example 100, N′-[4-(Benzofuran-2-yl)-6-isoquinolyl]ethane-1,2-diamine], the inhibition at 10 µM at MNK1 amounted to 51%. Besides, the half-inhibitory concentration (IC50) in assay [1] came to 4010 nM.
In the case of `NC1CCN(Cc2ccc3nncc(-c4ccc(Cl)cc4)c3c2)CC1` [Example 145, 1-[[4-(4-Chlorophenyl)cinnolin-6-yl]methyl]piperidin-4-amine], the IC50 on MNK1 stood at 2720 nM; in assay [1], 29000 nM.
With `NC1CCN(Cc2ccc3cncc(-c4ccccn4)c3c2)CC1` [Example 15], at MNK1, the half-inhibitory concentration (IC50) is 3960 nM.
With `COc1cc(O[C@H]2CC[C@H](N)CC2)cc2c(-c3cc4ccccc4o3)cncc12` [Example 314, Trans-4-[[4-(Benzofuran-2-yl)-8-methoxy-6-isoquinolyl]oxy]cyclohexanamine], the figures for the IC50 (at MNK1; in assay [1]) were 302 nM and 4740 nM, respectively.
On to `Cc1cc(N)cc[n+]1Cc1ccc2cncc(-c3cc4ccccc4o3)c2c1` [Example 125, 1-[[4-(Benzofuran-2-yl)-6-isoquinolyl]methyl]-2-methyl-pyridin-1-ium-4-amine], for which the half-maximal inhibitory concentration (IC50) on MNK1 was 52 nM; in assay [1], 4040 nM.
In the same order, the values of `Nc1cc[n+](Cc2ccc3cncc(-c4cc5ccccc5o4)c3c2)cc1O` [Example 59] are 90 nM and 47000 nM.
Regarding `Nc1cc[n+](Cc2ccc3cncc(-c4ccc(NC(=O)Nc5ccccc5)cc4)c3c2)cc1` [Example 124], the IC50 turned out to be 2080 nM on MNK1 and 45800 nM in assay [1].
In the same order, the values of `Nc1cc(NCc2ccc3nncc(-c4cc5ccccc5o4)c3c2)ccn1` [Example 278, N4-[[4-(Benzofuran-2-yl)cinnolin-6-yl]methyl]pyridine-2,4-diamine] are 43 nM and 3570 nM.
With `CN1CCN(Cc2ccc3cncc(-c4cc5ccccc5o4)c3c2)CC1` [Example 47], the IC50 on MNK1 worked out at 1120 nM; in assay [1], 10900 nM.
In the same order, the values of `COc1cc(CN2CCC(N)CC2)cc2c(-c3ccc(Cl)cc3)cncc12` [Example 288] are 241 nM and 4610 nM.
In the same order, the values of `CCOc1cc(CN2CCC(N)CC2)cc2c(-c3cc4ccccc4o3)cncc12` [Example 281, 1-[[4-(Benzofuran-2-yl)-8-ethoxy-6-isoquinolyl]methyl]piperidin-4-amine] are 297 nM and 2810 nM.
For `COc1ccc2oc(-c3cncc4ccc(CN5CCC(N)CC5)cc34)cc2c1` [Example 175], in that order: 1070 nM and 7720 nM.
As for `CN(c1ccc2cncc(-c3cc4ccccc4o3)c2c1)C1CCNCC1` [Example 211], the figures for the IC50 (on MNK1; in assay [1]) were 425 nM and 5570 nM, respectively.
For `Nc1ncc(-c2cc3ccccc3o2)c2cc(CN3CCC(N)CC3)cc(Cl)c12` [Example 256, 6-[(4-Amino-1-piperidyl)methyl]-4-(benzofuran-2-yl)-8-chloro-isoquinolin-1-amine], in that order: 216 nM and 1220 nM.
In the case of `NC1CCN(Cc2ccc3cncc(-c4cc5ccccc5o4)c3c2)c2ccccc21` (stereo not drawn) [Example 207], the IC50 at MNK1 was found to be 606 nM; in assay [1], 8040 nM.
On to `Cn1nccc1OCc1ccc2cncc(-c3cc4ccccc4o3)c2c1` [Example 97, 4-(Benzofuran-2-yl)-6-[(2-methylpyrazol-3-yl)oxymethyl]isoquinoline], for which the values for the IC50 (on MNK1; in assay [1]) were 397 nM and 10800 nM, respectively.
For `COc1cc(O[C@H]2CC[C@H](N)CC2)cc2c(-c3ccccc3)cncc12` [Example 316], in that order: 55 nM and 5570 nM.
In the same order, the values of `NC1CCN(Cc2ccc3cncc(-c4ccc(Cl)cc4)c3c2)CC1` [Example 9] are 258 nM and 10800 nM.
In the case of `c1ccc(-c2cnnc3ccc(CN4CCNCC4)cc23)cc1` [Example 83, 4-Phenyl-6-(piperazin-1-ylmethyl)cinnoline], at MNK1, the inhibition at 10 µM was 54%. Besides, in assay [1] (MIA PaCa-2, at 100 μM, read-out: Inhibition of MiaPaCa growth at indicated concentration), the inhibition at 100 µM is 31%.
As for `NC1CCN(Cc2ccc3cncc(-c4ccc5cc[nH]c5c4)c3c2)CC1` [Example 169], the values for the IC50 (on MNK1; in assay [1]) were 247 nM and 10300 nM, respectively.
In the same order, the values of `COc1cc(CN2CCC(N)CC2)cc2c(-c3cccs3)cnc(N)c12` [Example 298] are 282 nM and 3580 nM.
Regarding `NC1CCN(Cc2ccc3cncc(-c4ccc(NC(=O)Nc5ccc(Cl)cc5)cc4)c3c2)CC1` [Example 113, 1-[4-[6-[(4-Amino-1-piperidyl)methyl]-4-isoquinolyl]phenyl]-3-(4-chlorophenyl)urea], the figures for the 50% inhibitory concentration (IC50) (at MNK1; in assay [1]) were 3150 nM and 9210 nM, respectively.
For `Nc1ncc(-c2cccc(F)c2)c2cc(CN3CCC(N)CC3)ccc12` [Example 220], in that order: 1470 nM and 4280 nM.
`NC(=O)Nc1cccc(-c2cncc3ccc(CN4CCC(N)CC4)cc23)c1` [Example 34]: the IC50 at MNK1 is 1090 nM.
Regarding `O=c1[nH]cc(-c2ccccc2)c2cc(NCc3ccncc3)ccc12` [Example 90], the IC50 at MNK1 worked out at 1060 nM.
On the same count and under the same terms, in the case of `COc1cc(NCc2ccc3cncc(-c4cc5ccccc5o4)c3c2)ccn1` [Example 65] it was 157 nM.
As for `NC1CCN(Cc2ccc3cncc(-c4cccc(C(=O)O)c4)c3c2)CC1` [Example 30], the inhibition at 1 µM at MNK1 came out at 34%.
As for `N[C@H]1CC[C@H](Nc2ccc3c(=O)[nH]cc(-c4ccccc4)c3c2)CC1` [Example 88], at MNK1, the IC50 was 171 nM.
For the compound `Fc1cc(NCc2ccc3cncc(-c4cc5ccccc5o4)c3c2)ccn1` [Example 63], at MNK1, the IC50 turned out to be 68 nM.
Consider `N[C@H]1CC[C@@H](Nc2ccc3cncc(-c4cc5ccccc5o4)c3c2)CC1` [Example 81, N4-[4-(Benzofuran-2-yl)-6-isoquinolyl]cyclohexane-1,4-diamine], for which, in assay [1], the IC50 was determined as 2210 nM.
For the compound `NC(=O)Nc1ccc(-c2cncc3ccc(CN4CCC(N)CC4)cc23)cc1` [Example 33, [4-[6-[(4-Amino-1-piperidyl)methyl]-4-isoquinolyl]phenyl]urea], at MNK1, the IC50 was 866 nM.
The same measure, in the same setting: in the case of `Clc1cc(NCc2ccc3cncc(-c4cc5ccccc5o4)c3c2)ccn1` [Example 62] it was 2140 nM.
Regarding `N#Cc1ccccc1-c1cncc2ccc(CN3CCC(N)CC3)cc12` [Example 8], at MNK1, the inhibition at 10 µM was 95%.
`Nc1cc[n+](Cc2ccc3cnc(N)c(-c4cc5ccccc5o4)c3c2)cc1` [Example 166, 6-[(4-Aminopyridin-1-ium-1-yl)methyl]-4-(benzofuran-2-yl)isoquinolin-3-amine trifluoroacetate]: the IC50 at MNK1 was found to be 57 nM.
The same measure, in the same setting: the same measure for `Oc1ccc(-c2cncc3ccc(CNC4CCCNC4)cc23)cc1` (stereo not drawn) [Example 39]: 496 nM.
Still for that read-out and setting: the same measure for `c1cncc(NCc2ccc3cncc(-c4cc5ccccc5o4)c3c2)c1` [Example 60, N-[[4-(Benzofuran-2-yl)-6-isoquinolyl]methyl]pyridin-3-amine]: 135 nM.
Still for that read-out and setting: the same measure for `Nc1ncc(-c2cc3ccccc3o2)c2cc(O[C@H]3CC[C@H](N)CC3)cc(Cl)c12` [Example 320]: 94 nM.
Consider `c1ccc2oc(-c3cncc4ccc(NC5CCNCC5)cc34)cc2c1` [Example 82], for which, in assay [1], the IC50 stood at 2170 nM.
Regarding `NC1CCN(Cc2ccc3cncc(-c4ccc(C(=O)O)cc4)c3c2)CC1` [Example 29, 4-[6-[(4-Amino-1-piperidyl)methyl]-4-isoquinolyl]benzoic acid], the inhibition at 1 µM on MNK1 was found to be 43%.
As for `O=c1[nH]cc(-c2cc3ccccc3o2)c2cc(NCc3ccncc3)ccc12` [Example 89, 4-(Benzofuran-2-yl)-6-(4-pyridylmethylamino)-2H-isoquinolin-1-one], on MNK1, the inhibition at 10 µM was 35%.
For the compound `c1ccc2oc(-c3cncc4ccc(CNc5ccnnc5)cc34)cc2c1` [Example 131, N-[[4-(benzofuran-2-yl)-6-isoquinolyl]methyl]pyridazin-4-amine], the IC50 at MNK1 came out at 24 nM.

Usually IC50 stands for the concentration at which inhibition is half-maximal.
